Assay [1] addresses T1, D(2) dopamine receptor (Homo sapiens, UniProt P14416). Briefly: Displacement of [3H]-methyl-spiperone from human dopamine D2L receptor expressed in HEK293 cell membranes after 1 hr by radioligand binding assay.
The target of a further assay is D(3) dopamine receptor (Homo sapiens, UniProt P35462). Briefly: Displacement of [3H]-methyl-spiperone from human dopamine D3 receptor expressed in CHO cell membranes after 1 hr by liquid scintillation counting. In general terms: Displacement assays read how much labelled ligand stays bound in the presence of the test substance.
Assay [2] concerns the target 5-hydroxytryptamine receptor 6 (Homo sapiens, UniProt P50406). Briefly: Displacement of [3H]-LSD from human 5-HT6R expressed in CHO cell membranes by radioligand binding assay.
In assay [3] the target is T1, D(2) dopamine receptor. Briefly: Displacement of [3H]-methyl-spiperone from human dopamine D2L receptor expressed in HEK293 cell membranes at […] after 1 hr by radioligand binding assay.

Molecules are shown by their SMILES.

Chain of D(3) dopamine receptor (P35462 whole entry): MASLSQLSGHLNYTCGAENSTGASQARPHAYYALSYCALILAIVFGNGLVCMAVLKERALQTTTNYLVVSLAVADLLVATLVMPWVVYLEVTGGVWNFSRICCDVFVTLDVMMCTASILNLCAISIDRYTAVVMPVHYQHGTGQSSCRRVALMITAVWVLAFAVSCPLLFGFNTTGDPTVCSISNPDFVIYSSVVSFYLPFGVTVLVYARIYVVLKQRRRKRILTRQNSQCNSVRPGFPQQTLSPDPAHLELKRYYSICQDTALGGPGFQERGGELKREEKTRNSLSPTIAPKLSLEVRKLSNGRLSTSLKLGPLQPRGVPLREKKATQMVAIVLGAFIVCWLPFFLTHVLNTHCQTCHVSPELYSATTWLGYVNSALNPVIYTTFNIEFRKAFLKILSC
T1 sequence (P14416 whole entry): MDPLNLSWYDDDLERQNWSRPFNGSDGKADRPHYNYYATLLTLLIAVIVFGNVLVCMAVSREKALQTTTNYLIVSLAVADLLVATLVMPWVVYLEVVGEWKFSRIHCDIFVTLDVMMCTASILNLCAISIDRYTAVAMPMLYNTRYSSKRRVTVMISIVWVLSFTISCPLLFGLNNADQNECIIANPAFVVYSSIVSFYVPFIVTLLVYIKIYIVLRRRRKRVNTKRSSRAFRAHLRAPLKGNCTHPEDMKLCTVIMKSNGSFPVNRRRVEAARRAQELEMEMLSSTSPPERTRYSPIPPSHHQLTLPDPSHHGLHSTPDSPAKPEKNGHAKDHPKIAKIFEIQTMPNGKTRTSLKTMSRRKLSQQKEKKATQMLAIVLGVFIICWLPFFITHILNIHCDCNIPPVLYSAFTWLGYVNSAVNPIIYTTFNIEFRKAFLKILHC
Chain of 5-hydroxytryptamine receptor 6 (P50406 whole entry): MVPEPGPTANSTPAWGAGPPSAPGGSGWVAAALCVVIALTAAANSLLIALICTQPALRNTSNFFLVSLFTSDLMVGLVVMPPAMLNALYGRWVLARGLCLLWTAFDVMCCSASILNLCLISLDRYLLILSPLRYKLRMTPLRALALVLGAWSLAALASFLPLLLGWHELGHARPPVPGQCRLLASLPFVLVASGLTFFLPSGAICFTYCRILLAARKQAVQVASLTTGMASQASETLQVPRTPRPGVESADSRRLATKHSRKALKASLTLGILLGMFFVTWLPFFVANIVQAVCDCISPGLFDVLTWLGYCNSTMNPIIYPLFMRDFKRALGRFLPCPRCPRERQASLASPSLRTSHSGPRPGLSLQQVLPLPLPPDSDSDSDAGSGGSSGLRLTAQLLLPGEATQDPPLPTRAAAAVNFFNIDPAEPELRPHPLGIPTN

In general, Ki refers to a dissociation constant, usually derived from enzyme kinetics or from competition with a known ligand. Consider `CNCC1Cc2cc3ccn(S(=O)(=O)c4cccc5ccccc45)c3cc21` (centres undefined), for which the inhibition constant Ki on D(2) dopamine receptor [1] is 2.51 µM; at D(3) dopamine receptor, 794 nM; in assay [2], 1 nM.

For orientation: inhibition means the drop in the measured response relative to a control, in per cent. Lower therefore signals a weak effect. On to `CN[C@H]1c2cc3ccn(S(=O)(=O)c4ccccc4)c3cc2[C@H]1CCO` (relative stereo), for which the values for the inhibition constant (Ki) (on D(3) dopamine receptor; in assay [2]) were 1260 nM and 10 nM, respectively. The compound also came in with an inhibition at D(2) dopamine receptor [3] of 30%.

Turning to `CN(C)[C@@H]1c2cc3ccn(S(=O)(=O)c4ccccc4)c3cc2[C@H]1CCO` (relative stereo), the inhibitory constant (Ki) at D(3) dopamine receptor is 1260 nM; in assay [2] it was 12.6 nM. Moreover, the inhibition on D(2) dopamine receptor [3] was determined as 22%.

`CN[C@H]1c2cc3c(ccn3S(=O)(=O)c3ccccc3)cc2[C@@H]1CCO` (relative stereo): the Ki at D(2) dopamine receptor [1] was 6.31 µM; on D(3) dopamine receptor it was 251 nM; in assay [2], 158 nM.

For `CN[C@@H]1c2cc3c(ccn3S(=O)(=O)c3ccccc3)cc2[C@@H]1CCO` (relative stereo), the values for the Ki (at D(2) dopamine receptor [1]; on D(3) dopamine receptor; in assay [2]) were more than 10 µM, 1000 nM and 126 nM, respectively.

For the compound `O=S(=O)(c1ccccc1)n1ccc2c3c(ccc21)[C@H]1CCNCC[C@@H]31` (relative stereo), the figures for the Ki (on D(2) dopamine receptor [1]; on D(3) dopamine receptor; in assay [2]) were 0.794 µM, 1000 nM and 50.1 nM, respectively.

Regarding `CN[C@@H]1c2cc3ccn(S(=O)(=O)c4ccccc4)c3cc2[C@H]1CCO` (relative stereo), the values for the inhibitory constant (Ki) (at D(2) dopamine receptor [1]; at D(3) dopamine receptor; in assay [2]) were 15.8 µM, 2000 nM and 3.98 nM, respectively.

In the case of `CNCC1Cc2ccc3c(ccn3S(=O)(=O)c3cccc4ccccc34)c21` (centres undefined), the Ki on D(2) dopamine receptor [1] was 1 µM; at D(3) dopamine receptor, 251 nM; in assay [2], 1 nM.

For `CN[C@H]1c2c(ccc3c2ccn3S(=O)(=O)c2ccccc2)[C@@H]1CCO` (relative stereo), the figures for the Ki (at D(2) dopamine receptor [1]; at D(3) dopamine receptor; in assay [2]) were 15.8 µM, 1260 nM and 200 nM, respectively.

`CN(C)[C@@H]1c2cc3c(ccn3S(=O)(=O)c3ccccc3)cc2[C@@H]1CCO` (relative stereo): the figures for the Ki (at D(3) dopamine receptor; in assay [2]) were 631 nM and 316 nM, respectively. At D(2) dopamine receptor [3], this compound returned an inhibition of 20%.

In the case of `CN[C@H]1c2ccc3c(ccn3S(=O)(=O)c3ccccc3)c2[C@@H]1CCO` (relative stereo), the Ki is more than 10 µM on D(2) dopamine receptor [1], 1260 nM at D(3) dopamine receptor and 158 nM in assay [2].

With `CN(C)[C@H]1c2cc3ccn(S(=O)(=O)c4ccccc4)c3cc2[C@H]1CCO` (relative stereo), the inhibition constant (Ki) at D(2) dopamine receptor [1] was more than 10 µM; at D(3) dopamine receptor it was 398 nM; in assay [2] it was 39.8 nM.

Take `O=S(=O)(c1ccccc1)n1ccc2cc3c(cc21)[C@H]1CCNCC[C@@H]31`: the inhibition constant (Ki) at D(2) dopamine receptor [1] was more than 10 µM; at D(3) dopamine receptor, 3160 nM; in assay [2], 158 nM.

In the case of `CN(C)[C@H]1c2cc3c(ccn3S(=O)(=O)c3ccccc3)cc2[C@@H]1CCO` (relative stereo), the Ki was 126 nM at D(3) dopamine receptor and 316 nM in assay [2]. At D(2) dopamine receptor [3], this compound gave an inhibition of 19%.

For `CNCC1Cc2ccc3c(ccn3S(=O)(=O)c3ccccc3)c21` (centres undefined), the values for the Ki (at D(2) dopamine receptor [1]; on D(3) dopamine receptor; in assay [2]) were 2 µM, 1260 nM and 1.58 nM, respectively.

In the case of `CC(=O)Nc1ccc(CCN(C)CC2Cc3ccc4c(ccn4S(=O)(=O)c4ccccc4)c32)cc1` (centres undefined), the Ki was 0.251 µM on D(2) dopamine receptor [1], 501 nM on D(3) dopamine receptor and 79.4 nM in assay [2].

For the compound `CN[C@@H]1c2ccc3c(ccn3S(=O)(=O)c3ccccc3)c2[C@@H]1CCO`, the Ki on D(2) dopamine receptor [1] was more than 10 µM; on D(3) dopamine receptor, more than 10000 nM; in assay [2], 25.1 nM.

Consider `CN[C@H]1c2c(ccc3c2ccn3S(=O)(=O)c2ccccc2)[C@H]1CCO` (relative stereo), for which the Ki was more than 10 µM at D(2) dopamine receptor [1], more than 10000 nM at D(3) dopamine receptor and 7.94 nM in assay [2].

(Values after ChEMBL document CHEMBL3871306, “Design and synthesis of novel N-sulfonyl-2-indoles that behave as 5-HT6 receptor ligands with significant selectivity for D3 over D2 receptors” (Bioorg Med Chem, 2017).)
